Experimental data: patent publication EP0577143A2, “Solid and liquid solutions of flavonoids” (ALFATEC-PHARMA GmbH, priority 1992, dated 1994)

Assay: Clinical bioavailability study: renal excretion of flavones over 24 h after oral rutin
Format: in vivo, gesunden Probanden
Conditions: Rutin molecularly dispersed in gelatin, taken by volunteers
Text: Die nahrungsbedingte Flavonausscheidung wurde dabei berücksichtigt und durch entsprechende Diätvorschriften möglichst gering gehalten.
Die Analytik und Identifikation der Flavonausscheidungen kann z.B. wie folgt durchgeführt werden: • 1. Saure Spaltung ( 1 M Salzsäure) der in biologischen Flüssigkeiten (Urin) enthaltenen Flavonkonjugate. • 2. Festphasenextraktion mit Methanol zur Anreicherung der freigesetzten Flavone (z.B. Extrelut^R, Fa. Merck). • 3. HPLC-Analytik mit Diodenarray-Detektion und Identifizierung einzelner Flavone, zusätzlich elektrochemische Identifikation (anodisches Oxidationspotential).
Die Empfindlichkeit der genannten Analytik ist >10 ng Flavon pro ml.

C[C@@H]1O[C@@H](OC[C@H]2O[C@@H](Oc3c(-c4ccc(O)c(O)c4)oc4cc(O)cc(O)c4c3=O)[C@H](O)[C@@H](O)[C@@H]2O)[C@H](O)[C@H](O)[C@H]1O [Rutin]
Metaboliten in vivo: Quercetin, Kämpferol und Isorhamnetin
